# From patent US8188085B2, “Antifungal agents” (Merck Sharp & Dohme Corp., priority 2008, dated 2012)
# Target: glucan synthase (GS) prepared from Candida albicans MY1055 (Candida albicans, UniProt O13428)
# Experiment: Glucan synthase inhibition (polymerization assay, 96-well)
# Format: biochemical
# Conditions: GS from C. albicans MY1055; 60 min incubation at 22° C.; read-out: Candida Albicans GS IC50 (converted)
# Method: The in vitro evaluation of glucan synthase inhibitory activity of compounds was measured in a polymerization assay in 96-well format. Each well contained 100 μL of ^3H-UDPG at 0.5 mM (6000 to 8000 dpm/nmol), 50 mM HEPES pH 7.5 (Sigma), 10% w/v glycerol (Sigma), 1.5 mg/mL bovine serum albumin (Sigma A 9647. Lot 44H0190), 25 mM KF (Fisher), 1 mM EDTA (Gibco ULTRAPURE), 25 μM GTP-γ-S, enzyme sufficient to give 3 to 6 nmoles incorporation during the 60 min incubation at 22° C., and test compound added from wells in 3-fold serial dilutions in 100% DMSO (1 μL/well). The reaction was stopped by the addition of 100 μL of 20% trichloroacetic acid. Plates were chilled for a minimum of 10 min, and precipitated glucan collected by filtration on GF/C plates (Packard UNIFILTER®-96), washed with 5 cycles of water (about 1 mL/well each cycle) using a Packard FILTERMATE HARVESTER. 40 μL/well scintillation fluid (Packard ULTIMA GOLD TM-XR) was added and the sealed plates counted in a WALLAC BETA counter in top-counting mode at an efficiency of approximately 40%.
# Stock solutions were stored at 10 mg/mL in DMSO at −20° C. For each new enzyme preparation, the initial titration performed started at 1 mg/mL, which was prepared by making a 10-fold dilution in DMSO (5 μL to 50 μL). 40 μL of this stock was placed in column 12 of a round-bottomed 96-well microtiter plate. 40 μL DMSO was added to columns 1 to 11 in the same row and ten 3-fold serial dilutions performed, by transferring 20 μL from column 12 to column 11 etc., with 4 mixings before each transfer. No test compound was transferred to from column 2 to column 1. Duplicate aliquots of 1 μL of all 12 dilutions were then transferred to the side walls of a 96-well Bioblock 1.1 mL plate (Fisher brand) to create two rows.
# Graphs of the primary data were created in PRISM software (the average of two determinations) using PRISM's curve fitting program (sigmoidal dose response non-linear regression). The amount of compound required to inhibit glucan synthase activity by 50% in this assay (IC50−ng/mL) was calculated.
# Routine analysis was performed with glucan synthase (GS) prepared from Candida albicans MY1055 by the following procedure: MY1055 was grown in 10 liters YPD medium (10 g yeast extract, 20 g tryptone, 20 g glucose per liter) with vigorous shaking at 30° C., to early stationary phase. Cells were harvested by centrifugation, the pellet was washed and frozen at −70° C. until breakage. Thawed pellets were shaken with an equal volume of breakage buffer (50 mM HEPES pH 7.4, 10% glycerol, 1 mM EDTA, 1 mM PMSF, 1 mM DTT) and 4 times their weight of 0.5 mm acid washed glass beads for 2 hours at 4° C. Extent of breakage was assessed visually at 40× magnification. After low speed centrifugation to remove cell debris, the supernatant was centrifuged at 100,000×g for 60 min. to separate membranes plus ribosomes from cytoplasmic components. Membranes were further washed two additional times with breakage buffer using the same centrifugation conditions and finally suspended in breakage buffer at 25 to 30 mg/mL protein (Biorad) for storage at −70° C. Extraction of GS activity from membranes was performed at a protein concentration of 5 mg/mL in extraction buffer (50 mM NaPO4 pH 7.5, 0.1 M KCl, 0.1M Na citrate, 20% glycerol, 5 μM GTP-γ-S, 1 mM DTT, 1 mM PMSF, 3 μg/mL pepstatin) plus 0.25% W1 by gentle mixing at 4° C. for 60 min, followed by centrifugation at 100,000×g for 60 min. After centrifugation, clear supernatant was removed from a pellet consisting of a hard layer usually with small amounts of gelatinous unextracted membranes above it.
# Trapping was initiated immediately by 5-fold dilution in trapping buffer (50 mM HEPES pH 7.5, 10 mM KF, 1 mM EDTA, 2 mg/mL BSA) plus 2.5 mM UDPG and 10 μM GTP-γ-S. After incubation at 25° C. for 60 to 90 minutes, glucan was harvested by low speed centrifugation (3,000×g, 10 min). […]
# Chain of glucan synthase (GS) prepared from Candida albicans MY1055 (O13428 1-1897): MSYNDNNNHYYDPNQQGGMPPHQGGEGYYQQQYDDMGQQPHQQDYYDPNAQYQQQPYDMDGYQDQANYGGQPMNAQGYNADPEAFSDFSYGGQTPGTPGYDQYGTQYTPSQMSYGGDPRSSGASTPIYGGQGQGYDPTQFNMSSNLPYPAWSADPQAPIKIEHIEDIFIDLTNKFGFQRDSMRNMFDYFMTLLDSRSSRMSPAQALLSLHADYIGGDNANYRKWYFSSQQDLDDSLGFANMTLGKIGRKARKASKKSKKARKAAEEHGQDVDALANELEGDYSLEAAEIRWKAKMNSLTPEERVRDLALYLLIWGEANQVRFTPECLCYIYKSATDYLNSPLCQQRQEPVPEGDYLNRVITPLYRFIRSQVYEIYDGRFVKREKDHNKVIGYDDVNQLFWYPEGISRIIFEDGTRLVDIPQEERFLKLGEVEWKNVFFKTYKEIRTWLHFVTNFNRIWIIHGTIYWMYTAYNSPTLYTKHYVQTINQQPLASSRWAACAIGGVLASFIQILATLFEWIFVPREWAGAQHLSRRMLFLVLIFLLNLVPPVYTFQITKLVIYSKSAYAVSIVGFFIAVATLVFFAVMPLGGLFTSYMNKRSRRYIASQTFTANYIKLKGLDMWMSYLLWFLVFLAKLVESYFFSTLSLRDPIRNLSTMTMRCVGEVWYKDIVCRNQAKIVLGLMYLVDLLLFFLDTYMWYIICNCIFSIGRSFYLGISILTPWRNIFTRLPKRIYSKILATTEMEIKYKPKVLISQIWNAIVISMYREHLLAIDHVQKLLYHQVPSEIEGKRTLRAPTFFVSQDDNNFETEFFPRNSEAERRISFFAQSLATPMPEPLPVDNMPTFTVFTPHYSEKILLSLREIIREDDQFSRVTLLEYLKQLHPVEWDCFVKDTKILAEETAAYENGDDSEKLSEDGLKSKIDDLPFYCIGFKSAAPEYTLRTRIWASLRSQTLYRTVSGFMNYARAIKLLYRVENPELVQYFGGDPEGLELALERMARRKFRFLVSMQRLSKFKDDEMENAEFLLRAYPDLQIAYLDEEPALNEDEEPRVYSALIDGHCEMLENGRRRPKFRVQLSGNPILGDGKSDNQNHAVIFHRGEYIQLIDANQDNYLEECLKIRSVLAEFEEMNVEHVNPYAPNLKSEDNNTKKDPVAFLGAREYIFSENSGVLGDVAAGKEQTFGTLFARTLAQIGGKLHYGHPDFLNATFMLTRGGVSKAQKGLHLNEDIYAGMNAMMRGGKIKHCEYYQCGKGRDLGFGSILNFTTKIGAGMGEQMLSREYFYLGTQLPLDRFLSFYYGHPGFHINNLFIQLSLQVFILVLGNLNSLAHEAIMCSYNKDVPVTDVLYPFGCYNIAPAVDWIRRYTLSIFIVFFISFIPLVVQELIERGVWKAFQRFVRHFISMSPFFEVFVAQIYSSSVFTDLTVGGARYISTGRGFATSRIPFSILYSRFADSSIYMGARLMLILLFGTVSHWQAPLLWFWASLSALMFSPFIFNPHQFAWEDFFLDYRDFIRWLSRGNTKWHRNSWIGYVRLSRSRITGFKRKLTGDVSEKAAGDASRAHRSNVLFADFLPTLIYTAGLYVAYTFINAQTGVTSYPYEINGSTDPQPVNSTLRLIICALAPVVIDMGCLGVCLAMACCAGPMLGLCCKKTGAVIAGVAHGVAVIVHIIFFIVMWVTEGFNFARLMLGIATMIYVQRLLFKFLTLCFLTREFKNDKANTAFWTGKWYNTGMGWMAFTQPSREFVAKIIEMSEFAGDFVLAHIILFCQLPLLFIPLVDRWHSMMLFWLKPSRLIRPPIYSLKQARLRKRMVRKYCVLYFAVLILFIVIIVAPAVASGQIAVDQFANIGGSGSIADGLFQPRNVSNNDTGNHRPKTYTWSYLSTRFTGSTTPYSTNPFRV
row,SMILES,IC50 [nM]
1,"CC(C)[C@@H](C)[C@@]1(C)CC[C@]2(C)[C@H]3CC[C@@H]4[C@@]5(COC[C@@]4(C)[C@@H](OC[C@H](N)C(C)(C)C)[C@H](n4cnc(N)n4)C5)C3=CC[C@@]2(C)[C@@H]1C(=O)O [Example 24, (1S,4aR,6aS,7R,8R,10aR,10bR,12aR,14R,15R)-15-[[(2R)-2-amino-3,3-dimethylbutyl]oxy]-14-(3-amino-1H-1,2,4-triazol-1-yl)-8-[(1R)-1,2-dimethylpropyl]-1,6,6a,7,8,9,10,10a,10b,11,12,12a-dodecahydro-1,6a,8,10a-tetramethyl-4H-1,4a-propano-2H-phenanthro[1,2-c]pyran-7-carboxylic acid]",16.8
2,"CN[C@@](C)(CO[C@H]1[C@H](n2ncnc2C2=NCCCN2)C[C@@]23COC[C@]1(C)[C@@H]2CC[C@H]1C3=CC[C@@]2(C)[C@H](C(=O)O)[C@@](C)([C@H](C)C(C)C)CC[C@]12C)C(C)(C)C [Example 136, (1S,4aR,6aS,7R,8R,10aR,10bR,12aR,14R,15R)-8-[(1R)-1,2-dimethylpropyl]-14-[5-(1,4,5,6-tetrahydro-2-pyrimidinyl)-1H-1,2,4-triazol-1-yl]-15-[[(2R)-2,3,3-trimethyl-2-(methylamino)butyl]oxy]-1,6,6a,7,8,9,10,10a,10b,11,12,12a-dodecahydro-1,6a,8,10a-tetramethyl-4H-1,4a-propano-2H-phenanthro[1,2-c]pyran-7-carboxylic acid]",12
3,"CC(C)[C@@H](C)[C@@]1(C)CC[C@]2(C)[C@H]3CC[C@@H]4[C@@]5(COC[C@@]4(C)[C@@H](OC[C@](C)(N)C(C)(C)C)[C@H](n4ncnc4-c4cccc(C(N)=O)c4)C5)C3=CC[C@@]2(C)[C@@H]1C(=O)O [Example 228, (1S,4aR,6aS,7R,8R,10aR,10bR,12aR,14R,15R)-14-[5-[3-(aminocarbonyl)phenyl]-1H-1,2,4-triazol-1-yl]-15-[[(2R)-2-amino-2,3,3-trimethylbutyl]oxy]-8-[(1R)-1,2-dimethylpropyl]-1,6,6a,7,8,9,10,10a,10b,11,12,12a-dodecahydro-1,6a,8,10a-tetramethyl-4H-1,4a-propano-2H-phenanthro[1,2-c]pyran-7-carboxylic acid]",7.77
4,"CNC(=O)c1ncnn1[C@@H]1C[C@@]23COC[C@](C)([C@@H]2CC[C@H]2C3=CC[C@@]3(C)[C@H](C(=O)O)[C@@](C)([C@H](C)C(C)C)CC[C@]23C)[C@H]1OC[C@](C)(N)C(C)(C)C [Example 89, (1S,4aR,6aS,7R,8R,10aR,10bR,12aR,14R,15R)-15-[[(2R)-2-amino-2,3,3-trimethylbutyl]oxy]-8-[(1R)-1,2-dimethylpropyl]-14-[5-[(methylamino)carbonyl]-1H-1,2,4-triazol-1-yl]-1,6,6a,7,8,9,10,10a,10b,11,12,12a-dodecahydro-1,6a,8,10a-tetramethyl-4H-1,4a-propano-2H-phenanthro[1,2-c]pyran-7-carboxylic acid]",11.3
5,"CC(C)[C@@H](C)[C@@]1(C)CC[C@]2(C)[C@H]3CC[C@@H]4[C@@]5(COC[C@@]4(C)[C@@H](OC[C@](C)(N)C(C)C)[C@H](n4ncnc4C4=NCCN4)C5)C3=CC[C@@]2(C)[C@@H]1C(=O)O [Example 128, (1S,4aR,6aS,7R,8R,10aR,10bR,12aR,14R,15R)-15-[[(2R)-2-amino-2,3-dimethylbutyl]oxy]-14-[5-(4,5-dihydro-1H-imidazol-2-yl)-1H-1,2,4-triazol-1-yl]-8-[(1R)-1,2-dimethylpropyl]-1,6,6a,7,8,9,10,10a,10b,11,12,12a-dodecahydro-1,6a,8,10a-tetramethyl-4H-1,4a-propano-2H-phenanthro[1,2-c]pyran-7-carboxylic acid]",8.49
6,"CN[C@@](C)(CO[C@H]1[C@H](n2nccc2-c2ccncc2)C[C@@]23COC[C@]1(C)[C@@H]2CC[C@H]1C3=CC[C@@]2(C)[C@H](C(=O)O)[C@@](C)([C@H](C)C(C)C)CC[C@]12C)C(C)C [Example 312, (1S,4aR,6aS,7R,8R,10aR,10bR,12aR,14R,15R)-15-[[(2R)-2,3-dimethyl-2-(methylamino)butyl]oxy]-8-[(1R)-1,2-dimethylpropyl]-14-[5-(4-pyridinyl)-1H-pyrazol-1-yl]-1,6,6a,7,8,9,10,10a,10b,11,12,12a-dodecahydro-1,6a,8,10a-tetramethyl-4H-1,4a-propano-2H-phenanthro[1,2-c]pyran-7-carboxylic acid]",17.8
7,"CC(C)[C@@H](C)[C@@]1(C)CC[C@]2(C)[C@H]3CC[C@@H]4[C@@]5(COC[C@@]4(C)[C@@H](OC[C@](C)(N)C(C)C)[C@H](n4ncnc4C(=O)N4CCOCC4)C5)C3=CC[C@@]2(C)[C@@H]1C(=O)O [Example 86, (1S,4aR,6aS,7R,8R,10aR,10bR,12aR,14R,15R)-15-[[(2R)-2-amino-2,3-dimethylbutyl]oxy]-8-[(1R)-1,2-dimethylpropyl]-14-[5-(4-morpholinylcarbonyl)-1H-1,2,4-triazol-1-yl]-1,6,6a,7,8,9,10,10a,10b,11,12,12a-dodecahydro-1,6a,8,10a-tetramethyl-4H-1,4a-propano-2H-phenanthro[1,2-c]pyran-7-carboxylic acid]",70.5
8,"CC(C)[C@@H](C)[C@@]1(C)CC[C@]2(C)[C@H]3CC[C@@H]4[C@@]5(COC[C@@]4(C)[C@@H](OC[C@](C)(N)C(C)C)[C@H](n4ncnc4C(=O)NCCN(C)C)C5)C3=CC[C@@]2(C)[C@@H]1C(=O)O [Example 83, (1S,4aR,6aS,7R,8R,10aR,10bR,12aR,14R,15R)-15-[[(2R)-2-amino-2,3-dimethylbutyl]oxy]-14-[5-[[[2-(dimethylamino)ethyl]amino]carbonyl]-1H-1,2,4-triazol-1-yl]-8-[(1R)-1,2-dimethylpropyl]-1,6,6a,7,8,9,10,10a,10b,11,12,12a-dodecahydro-1,6a,8,10a-tetramethyl-4H-1,4a-propano-2H-phenanthro[1,2-c]pyran-7-carboxylic acid]",12
9,"CC(C)[C@@H](C)[C@@]1(C)CC[C@]2(C)[C@H]3CC[C@@H]4[C@@]5(COC[C@@]4(C)[C@@H](OCC(C)(C(C)C)N(C)C)[C@H](n4ncnc4Cl)C5)C3=CC(=O)[C@@]2(C)[C@@H]1C(=O)O (stereo partly drawn) [Example 9B, (1S,4aR,6aS,7R,8R,10aR,10bR,12aR,14R,15R)-14-(5-chloro-1H-1,2,4-triazol-1-yl)-15-[2-(dimethylamino)-2,3-dimethylbutoxy]-8-[(1R)-1,2-dimethylpropyl]-1,6,6a,7,8,9,10,10a,10b,11,12,12a-dodecahydro-1,6a,8,10a-tetramethyl-6-oxo-4H-1,4a-propano-2H-phenanthro[1,2-c]pyran-7-carboxylic acid]",36.3

# Now from value to compound:
row,IC50 [nM],SMILES
1,126,"COC(=O)c1cnnn1[C@@H]1C[C@@]23COC[C@](C)([C@@H]2CC[C@H]2C3=CC[C@@]3(C)[C@H](C(=O)O)[C@@](C)([C@H](C)C(C)C)CC[C@]23C)[C@H]1OC[C@](C)(N)C(C)C (single isomer, unassigned) [Example 289B]"
2,42.9,"CC(C)[C@@H](C)[C@@]1(C)CC[C@]2(C)[C@H]3CC[C@@H]4[C@@]5(COC[C@@]4(C)[C@@H](OC[C@](C)(N)C(C)(C)C)[C@H](n4cnnc4)C5)C3=CC[C@@]2(C)[C@@H]1C(=O)O [Example 1B, (1S,4aR,6aS,7R,8R,10aR,10bR,12aR,14R,15R)-15-[[(2R)-2-amino-2,3,3-trimethylbutyl]oxy]-8-[(1R)-1,2-dimethylpropyl]-14-(4H-1,2,4-triazol-4-yl)-1,6,6a,7,8,9,10,10a,10b,11,12,12a-dodecahydro-1,6a,8,10a-tetramethyl-4H-1,4a-propano-2H-phenanthro[1,2-c]pyran-7-carboxylic acid]"
